In patent US5100905A, “Method for inhibiting growth of bacteria, fungi or algae by treatment with biocide composition” (Rohm and Haas Company, priority 1991, dated 1992):
Like-named read-outs stand apart in the source and are kept apart here.

Tests used:
[1] = Growth inhibition / minimum inhibitory concentration (MIC) by 2-fold serial dilutions in Trypticase Soy Broth, 3 inoculations; format: cell-based; conditions: read-out: End-point activity (MIC) QA (573 alone); for Growth after inoculation: key: -: growth inhibited; +: growth not inhibited
Experimental: (§1) Each single culture was inoculated to TSB agar slants and incubated for 2 days at 30° C. for C. albicans and all bacteria except E. coli and S. aureus, which were at 37° C., and incubated for 10-14 days at 25° C. for fungal cultures. The bacteria and fungi were then washed off the slants with phosphate buffer (0.125 M, pH 7.2) and inoculated into each test tube containing a given concentration and ratio of 573 and 886 to make final cell concentration of about 2×10^7 bacteria and 2×10^6 fungi per ml. […] Seven days after inoculation, 5 microliter of sample from each test tube (containing about 10^5 bacteria and 10^4 fungi from original inoculation) was removed and assessed for viable organisms by 1:50 dilution into TSB medium and checked for regrowth. No viable organisms were detected from the test tubes where MICs were observed. […] Each test tube was reinoculated 2 more times (a total of 3 inoculations) to determine the capacity and the longlasting activity of the combinations.
(§2) As shown, a wide range of concentration and ratios was tested. More importantly all the critical end-point activities for the combinations were covered. […] Thus, the end-point activities are based on the minimum concentrations of a given ratio of combination product that inhibit all three inoculations.

[2] = system: mixture of the following 12 microorganisms: Escherichia coli, Candida albicans, Pseudomonas oleovarans, Pseudomonas aeruginosa, Staphylococcus aureus …; test: as above; format: cell-based
Experimental: as §1, §2

[3] = Expt. 1, all three inoculations
[4] = Expt. 2, all three inoculations

Cn1sccc1=O [compound 573, 2-methyl-4-isothiazolin-3-one]
MIC [1, 3]: 500 µg/mL | MIC [1, 4]: 125 µg/mL | Growth after inoculation ([2]; Expt. 1, 1st inoculation, 573(A) 0.5 ppm): + | Growth after inoculation ([2]; Expt. 1, 1st inoculation, 573(A) 1.0 ppm): + | Growth after inoculation ([2]; Expt. 1, 1st inoculation, 573(A) 2.0 ppm): + | Growth after inoculation ([2]; Expt. 1, 1st inoculation, 573(A) 3.9 ppm): + | Growth after inoculation ([2]; Expt. 1, 1st inoculation, 573(A) 9.8 ppm): + | Growth after inoculation ([2]; Expt. 1, 1st inoculation, 573(A) 15.6 ppm): + | Growth after inoculation ([2]; Expt. 1, 1st inoculation, 573(A) 31.2 ppm): + | Growth after inoculation ([2]; Expt. 1, 1st inoculation, 573(A) 62.5 ppm): + | Growth after inoculation ([2]; Expt. 1, 1st inoculation, 573(A) 125.0 ppm): + | Growth after inoculation ([2]; Expt. 1, 1st inoculation, 573(A) 250.0 ppm): - | Growth after inoculation ([2]; Expt. 1, 1st inoculation, 573(A) 500.0 ppm): - | Growth after inoculation ([2]; Expt. 1, 2nd inoculation, 573(A) 0.5 ppm): + | Growth after inoculation ([2]; Expt. 1, 2nd inoculation, 573(A) 1.0 ppm): + | Growth after inoculation ([2]; Expt. 1, 2nd inoculation, 573(A) 2.0 ppm): + | Growth after inoculation ([2]; Expt. 1, 2nd inoculation, 573(A) 3.9 ppm): + | Growth after inoculation ([2]; Expt. 1, 2nd inoculation, 573(A) 9.8 ppm): + | Growth after inoculation ([2]; Expt. 1, 2nd inoculation, 573(A) 15.6 ppm): + | Growth after inoculation ([2]; Expt. 1, 2nd inoculation, 573(A) 31.2 ppm): + | Growth after inoculation ([2]; Expt. 1, 2nd inoculation, 573(A) 62.5 ppm): + | Growth after inoculation ([2]; Expt. 1, 2nd inoculation, 573(A) 125.0 ppm): + | Growth after inoculation ([2]; Expt. 1, 2nd inoculation, 573(A) 250.0 ppm): + | Growth after inoculation ([2]; Expt. 1, 2nd inoculation, 573(A) 500.0 ppm): - | Growth after inoculation ([2]; Expt. 1, 3rd inoculation, 573(A) 0.5 ppm): + | Growth after inoculation ([2]; Expt. 1, 3rd inoculation, 573(A) 1.0 ppm): + | Growth after inoculation ([2]; Expt. 1, 3rd inoculation, 573(A) 2.0 ppm): + | Growth after inoculation ([2]; Expt. 1, 3rd inoculation, 573(A) 3.9 ppm): + | Growth after inoculation ([2]; Expt. 1, 3rd inoculation, 573(A) 9.8 ppm): + | Growth after inoculation ([2]; Expt. 1, 3rd inoculation, 573(A) 15.6 ppm): + | Growth after inoculation ([2]; Expt. 1, 3rd inoculation, 573(A) 31.2 ppm): + | Growth after inoculation ([2]; Expt. 1, 3rd inoculation, 573(A) 62.5 ppm): + | Growth after inoculation ([2]; Expt. 1, 3rd inoculation, 573(A) 125.0 ppm): + | Growth after inoculation ([2]; Expt. 1, 3rd inoculation, 573(A) 250.0 ppm): + | Growth after inoculation ([2]; Expt. 1, 3rd inoculation, 573(A) 500.0 ppm): - | End-point activity (MIC) Qa (573 in the mixture of 573 and 886) [2, 3]: 500.0 ppm | Growth after inoculation ([2]; Expt. 2, 1st inoculation, 573(A) 0.5 ppm): + | Growth after inoculation ([2]; Expt. 2, 1st inoculation, 573(A) 1.0 ppm): + | Growth after inoculation ([2]; Expt. 2, 1st inoculation, 573(A) 2.0 ppm): + | Growth after inoculation ([2]; Expt. 2, 1st inoculation, 573(A) 3.9 ppm): + | Growth after inoculation ([2]; Expt. 2, 1st inoculation, 573(A) 9.8 ppm): + | Growth after inoculation ([2]; Expt. 2, 1st inoculation, 573(A) 15.6 ppm): + | Growth after inoculation ([2]; Expt. 2, 1st inoculation, 573(A) 31.2 ppm): + | Growth after inoculation ([2]; Expt. 2, 1st inoculation, 573(A) 62.5 ppm): + | Growth after inoculation ([2]; Expt. 2, 1st inoculation, 573(A) 125.0 ppm): - | Growth after inoculation ([2]; Expt. 2, 1st inoculation, 573(A) 250.0 ppm): - | Growth after inoculation ([2]; Expt. 2, 1st inoculation, 573(A) 500.0 ppm): - | Growth after inoculation ([2]; Expt. 2, 2nd inoculation, 573(A) 0.5 ppm): + | Growth after inoculation ([2]; Expt. 2, 2nd inoculation, 573(A) 1.0 ppm): + | Growth after inoculation ([2]; Expt. 2, 2nd inoculation, 573(A) 2.0 ppm): + | Growth after inoculation ([2]; Expt. 2, 2nd inoculation, 573(A) 3.9 ppm): + | Growth after inoculation ([2]; Expt. 2, 2nd inoculation, 573(A) 9.8 ppm): + | Growth after inoculation ([2]; Expt. 2, 2nd inoculation, 573(A) 15.6 ppm): + | Growth after inoculation ([2]; Expt. 2, 2nd inoculation, 573(A) 31.2 ppm): + | Growth after inoculation ([2]; Expt. 2, 2nd inoculation, 573(A) 62.5 ppm): + | Growth after inoculation ([2]; Expt. 2, 2nd inoculation, 573(A) 125.0 ppm): - | Growth after inoculation ([2]; Expt. 2, 2nd inoculation, 573(A) 250.0 ppm): - | Growth after inoculation ([2]; Expt. 2, 2nd inoculation, 573(A) 500.0 ppm): - | Growth after inoculation ([2]; Expt. 2, 3rd inoculation, 573(A) 0.5 ppm): + | Growth after inoculation ([2]; Expt. 2, 3rd inoculation, 573(A) 1.0 ppm): + | Growth after inoculation ([2]; Expt. 2, 3rd inoculation, 573(A) 2.0 ppm): + | Growth after inoculation ([2]; Expt. 2, 3rd inoculation, 573(A) 3.9 ppm): + | Growth after inoculation ([2]; Expt. 2, 3rd inoculation, 573(A) 9.8 ppm): + | Growth after inoculation ([2]; Expt. 2, 3rd inoculation, 573(A) 15.6 ppm): + | Growth after inoculation ([2]; Expt. 2, 3rd inoculation, 573(A) 31.2 ppm): + | Growth after inoculation ([2]; Expt. 2, 3rd inoculation, 573(A) 62.5 ppm): + | Growth after inoculation ([2]; Expt. 2, 3rd inoculation, 573(A) 125.0 ppm): - | Growth after inoculation ([2]; Expt. 2, 3rd inoculation, 573(A) 250.0 ppm): - | Growth after inoculation ([2]; Expt. 2, 3rd inoculation, 573(A) 500.0 ppm): - | End-point activity (MIC) Qa (573 in the mixture of 573 and 886) [2, 4]: 125.0 ppm | Contribution to the overall activity of 886 ([2]; at very low concentrations (<8 ppm)): does not contribute significantly to the overall activity of 886
